Organism: Rattus norvegicus
Assay: DrugMatrix - Regimen: Daily Repeat
Assay type: toxicity, organism-based, Sprague-Dawley
Set-up: regimen Daily Repeat, gender Male, age 6-8 weeks
Conditions: in vivo, po, route oral GAVAGE, […]; for ABSOLUTE BASOPHIL / ABSOLUTE EOSINOPHIL / ABSOLUTE LYMPHOCYTE / ABSOLUTE MONOCYTE / ABSOLUTE SEGMENTED NEUTROPHIL / BASOPHIL / EOSINOPHIL / ERYTHROCYTE COUNT / HEMATOCRIT / HEMOGLOBIN / LEUKOCYTE COUNT / LYMPHOCYTE / MEAN CORPUSCULAR HEMOGLOBIN / MEAN CORPUSCULAR HEMOGLOBIN CONCENTRATION / MEAN CORPUSCULAR VOLUME / MONOCYTE / NEUTROPHIL / NUCLEATED RED BLOOD CELLS / PLATELET COUNT: tissue Blood; for ALANINE AMINOTRANSFERASE / ALBUMIN / ALKALINE PHOSPHATASE / ASPARTATE AMINOTRANSFERASE / BLOOD UREA NITROGEN / CARBON DIOXIDE / CHLORIDE / CHOLESTEROL / CREATINE PHOSPHOKINASE / CREATININE / GLUCOSE / LACTATE DEHYDROGENASE / LIPASE / PHOSPHORUS / POTASSIUM / SODIUM / TOTAL BILIRUBIN / TOTAL PROTEIN / URIC ACID: tissue Plasma
[1] = 0 mg/kg, 72 h, dose level Control, time 3 day
[2] = 0 mg/kg, 120 h, dose level Control, time 5 day
[3] = 10 mg/kg, 72 h, dose level Low, time 3 day

c1ccc2[nH]c(-c3cscn3)nc2c1 [THIABENDAZOLE]
ABSOLUTE BASOPHIL [1]: 0 CELLS/uL | ABSOLUTE EOSINOPHIL [1]: 13.67 CELLS/uL | ABSOLUTE LYMPHOCYTE [1]: 10069.5 CELLS/uL | ABSOLUTE MONOCYTE [1]: 50 CELLS/uL | ABSOLUTE SEGMENTED NEUTROPHIL [1]: 516.83 CELLS/uL | BASOPHIL [1]: 0% | EOSINOPHIL [1]: 0.17% | ERYTHROCYTE COUNT [1]: 5.44 x10E6/uL | HEMATOCRIT [1]: 33.88% | HEMOGLOBIN [1]: 13.23 G/DL | LEUKOCYTE COUNT [1]: 10.65 x10E3/uL | LYMPHOCYTE [1]: 94.67% | MEAN CORPUSCULAR HEMOGLOBIN [1]: 24.37 pg | MEAN CORPUSCULAR HEMOGLOBIN CONCENTRATION [1]: 39.05 G/DL | MEAN CORPUSCULAR VOLUME [1]: 62.38 fL | MONOCYTE [1]: 0.67% | NEUTROPHIL [1]: 4.5% | NUCLEATED RED BLOOD CELLS [1]: 0.33 /100WBC | PLATELET COUNT [1]: 414.5 x10E3/uL | ALANINE AMINOTRANSFERASE [1]: 72 u/L | ALBUMIN [1]: 3.75 G/DL | ALKALINE PHOSPHATASE [1]: 375 u/L | ASPARTATE AMINOTRANSFERASE [1]: 87.5 u/L | BLOOD UREA NITROGEN [1]: 14 mg/dL | CARBON DIOXIDE [1]: 27.5 mmol/L | CHLORIDE [1]: 95.83 MEQ/L | CHOLESTEROL [1]: 68.5 mg/dL | CREATINE PHOSPHOKINASE [1]: 284.33 u/L | CREATININE [1]: 0.16 mg/dL | GLUCOSE [1]: 156.67 mg/dL | LACTATE DEHYDROGENASE [1]: 101.83 u/L | LIPASE [1]: 9.67 u/L | PHOSPHORUS [1]: 10.33 mg/dL | POTASSIUM [1]: 5.22 MEQ/L | SODIUM [1]: 137.67 MEQ/L | TOTAL BILIRUBIN [1]: 0.13 mg/dL | TOTAL PROTEIN [1]: 5.43 G/DL | URIC ACID [1]: 0.8 mg/dL | ABSOLUTE BASOPHIL [2]: 0 CELLS/uL | ABSOLUTE EOSINOPHIL [2]: 20.67 CELLS/uL | ABSOLUTE LYMPHOCYTE [2]: 11518.33 CELLS/uL | ABSOLUTE MONOCYTE [2]: 47 CELLS/uL | ABSOLUTE SEGMENTED NEUTROPHIL [2]: 614 CELLS/uL | BASOPHIL [2]: 0% | EOSINOPHIL [2]: 0.17% | ERYTHROCYTE COUNT [2]: 5.61 x10E6/uL | HEMATOCRIT [2]: 34.25% | HEMOGLOBIN [2]: 13.38 G/DL | LEUKOCYTE COUNT [2]: 12.2 x10E3/uL | LYMPHOCYTE [2]: 94.33% | MEAN CORPUSCULAR HEMOGLOBIN [2]: 23.83 pg | MEAN CORPUSCULAR HEMOGLOBIN CONCENTRATION [2]: 39.08 G/DL | MEAN CORPUSCULAR VOLUME [2]: 61.03 fL | MONOCYTE [2]: 0.33% | NEUTROPHIL [2]: 5.17% | NUCLEATED RED BLOOD CELLS [2]: 0 /100WBC | PLATELET COUNT [2]: 941.83 x10E3/uL | ALANINE AMINOTRANSFERASE [2]: 68.83 u/L | ALBUMIN [2]: 4.12 G/DL | ALKALINE PHOSPHATASE [2]: 492.67 u/L | ASPARTATE AMINOTRANSFERASE [2]: 83.33 u/L | BLOOD UREA NITROGEN [2]: 14 mg/dL | CARBON DIOXIDE [2]: 37 mmol/L | CHLORIDE [2]: 98.67 MEQ/L | CHOLESTEROL [2]: 56.5 mg/dL | CREATINE PHOSPHOKINASE [2]: 167.33 u/L | CREATININE [2]: 0.17 mg/dL | GLUCOSE [2]: 157.5 mg/dL | LACTATE DEHYDROGENASE [2]: 104.83 u/L | LIPASE [2]: 10 u/L | PHOSPHORUS [2]: 10.43 mg/dL | POTASSIUM [2]: 5.46 MEQ/L | SODIUM [2]: 143.87 MEQ/L | TOTAL BILIRUBIN [2]: 0.17 mg/dL | TOTAL PROTEIN [2]: 5.72 G/DL | URIC ACID [2]: 0.85 mg/dL | ABSOLUTE BASOPHIL [3]: 0 CELLS/uL | ABSOLUTE EOSINOPHIL [3]: 0 CELLS/uL | ABSOLUTE LYMPHOCYTE [3]: 5878.33 CELLS/uL | ABSOLUTE MONOCYTE [3]: 47.67 CELLS/uL | ABSOLUTE SEGMENTED NEUTROPHIL [3]: 707.33 CELLS/uL | BASOPHIL [3]: 0% | EOSINOPHIL [3]: 0% | ERYTHROCYTE COUNT [3]: 5.01 x10E6/uL | HEMATOCRIT [3]: 31.07% | HEMOGLOBIN [3]: 12.3 G/DL | LEUKOCYTE COUNT [3]: 6.63 x10E3/uL | LYMPHOCYTE [3]: 88.67% | MEAN CORPUSCULAR HEMOGLOBIN [3]: 24.73 pg | MEAN CORPUSCULAR HEMOGLOBIN CONCENTRATION [3]: 39.77 G/DL | MEAN CORPUSCULAR VOLUME [3]: 62.1 fL | MONOCYTE [3]: 0.67% | NEUTROPHIL [3]: 10.67% | NUCLEATED RED BLOOD CELLS [3]: 0 /100WBC | PLATELET COUNT [3]: 848.67 x10E3/uL | ALANINE AMINOTRANSFERASE [3]: 79.33 u/L | ALBUMIN [3]: 3.7 G/DL | ALKALINE PHOSPHATASE [3]: 386.33 u/L | ASPARTATE AMINOTRANSFERASE [3]: 90.33 u/L | BLOOD UREA NITROGEN [3]: 13.33 mg/dL | CARBON DIOXIDE [3]: 25 mmol/L | CHLORIDE [3]: 96 MEQ/L | CHOLESTEROL [3]: 74 mg/dL | CREATINE PHOSPHOKINASE [3]: 147.33 u/L | CREATININE [3]: 0.21 mg/dL | GLUCOSE [3]: 143.33 mg/dL | LACTATE DEHYDROGENASE [3]: 107.33 u/L | LIPASE [3]: 12.67 u/L | PHOSPHORUS [3]: 10.57 mg/dL | POTASSIUM [3]: 5.5 MEQ/L | SODIUM [3]: 138.4 MEQ/L | TOTAL BILIRUBIN [3]: 0.13 mg/dL | TOTAL PROTEIN [3]: 5.33 G/DL | URIC ACID [3]: 0.87 mg/dL
